Holding throughout (type): cell-based
Test [1] has as its system ESR1 target gene trefoil factor 1 (TFF1). Briefly: E2-dependent ESR1 target gene (TFF1) mRNA in MCF7 cells, RT qPCR. The conditions noted are these: 10^-9 M E2, ligand 10^-11-10^-6 M, 24 hours. As for the experimental part:
RNA isolation and analysis was performed as described (Wardell et al., (2001) Biochem Pharmacol 82 (2):122-130). mRNA abundance was calculated using the ΔΔCT method (Wardell et al., (2001) Biochem Pharmacol 82 (2):122-130). Primer sequences are available upon request.
(§1) The ability of RAD1901 (FIG. 5A) to modulate the […] estradiol (E2) dependent transcriptional activity of the human estrogen receptor alpha (ESR1) and human estrogen receptor beta (ESR2) was assessed in transiently transfected SKBR3 cells using a synthetic reporter gene. […] For FIG. 5B, SKBR3 cells were plated in phenol red free media supplemented with charcoal stripped FBS (CFS) 24 hours prior to transfection with an ERE-luciferase reporter together with ESR1 or ESR2 expression vectors. 24 hours after transfection, cells were treated with E2 (10 nM) together with RAD1901 (10^−10-10^−6 M) for 24 hours prior to harvest and analysis of luciferase activity normalized to co-transfected β-galactosidase control. […] DNA content as assessed by fluorescence was measured as a surrogate for cell proliferation. The relative increase in DNA fluorescence was calculated by normalizing to baseline values detected in a duplicate plate of cells that was harvested on day 1 prior to the initial treatment. […] For FIG. 5F, expression of ESR1 target genes in tumors was analyzed essentially as in (C).

The test system of the next test is MCF7 cells. Briefly: E2-stimulated MCF7 cell proliferation assay (8 day, DNA fluorescence). The conditions noted are these: 10^-9 M E2, ligand 10^-11-10^-6 M, 8 day assay. The procedure:
Assays evaluating the effects of SERDs and SERMs on cell proliferation were performed as described (Wardell et al., (2013) Clin Cancer Res 19 (9):2420-2431).
as §1

The next test relates to LTED MCF7 cells. Briefly: LTED MCF7 cell proliferation assay. The conditions noted are these: model of aromatase resistance, 10^-11-10^-6 M, 8 day assay.

Regarding `CCNCCc1ccc(CN(CC)c2cc(OC)ccc2[C@@H]2CCc3cc(O)ccc3C2)cc1` [RAD1901, (R)-6-{2-{ethyl[4-(2-ethylaminoethyl)benzyl]amino}-4-methoxyphenyl}-5,6,7,8-tetrahydronaphthalen-2-ol], the “E2-dependent induction of target gene transcription (TFF1 mRNA)” value in test [1] was “inhibited”. Further, the “E2-dependent stimulation of cell proliferation” value in the test with MCF7 cells was “inhibited”. In addition, the cell proliferation result in the test with LTED MCF7 cells is given as “inhibited cell proliferation”.

The values above are taken from US10420734B2, “Method of treating cancer using selective estrogen receptor modulators” (Duke University, priority 2014, dated 2019).
